For two molecules, Activity, Time and Ki results are on record in ChEMBL document CHEMBL4342449, “Isolation of a High-Affinity Cannabinoid for the Human CB1 Receptor from a Medicinal Cannabis sativa Variety: Δ9-Tetrahydrocannabutol, the Butyl Homologue of Δ9-Tetrahydrocannabinol” (J Nat Prod, 2020).

Structures are written as SMILES. pKi: −log10 of the molar value. Activity calls are given as the source filed them. The calls are words filed in the database; no cut-off is given here.

For assay [1], the system named is Mus musculus. As to the kind of experiment: Analgesic activity in formalin-induced nociception CD-1 mouse model assessed as reduction in pain behaviour by measuring less flinching of formalin injected hind paw at 3 mg/kg, ip pretreated with compound 20 mins prior to formalin induction measured during second phase (every 5 mins for 15 to 60 mins after formalin injection) by formalin test. The format is functional, organism-based.

Assay [2] relates to Mus musculus. The experiment in a line: Analgesic activity in formalin-induced nociception CD-1 mouse model assessed as reduction in pain behaviour by measuring less flinching of formalin injected hind paw at 3 mg/kg, ip pretreated with compound 20 mins prior to formalin induction co-treated with AM630 and measured every 5 mins for 1 hr by formalin test. The format is functional, organism-based.

For assay [3], the system named is Mus musculus. The experiment in a line: Analgesic activity in formalin-induced nociception CD-1 mouse model assessed as reduction in pain behaviour by measuring less shaking of formalin injected hind paw at 3 mg/kg, ip pretreated with compound 20 mins prior to formalin induction co-treated with AM251 and measured every 5 mins for 1 hr by formalin test. The format is functional, organism-based.

Assay [4] concerns Mus musculus. As to the kind of experiment: Analgesic activity in formalin-induced nociception CD-1 mouse model assessed as reduction in pain behaviour by measuring less licking of formalin injected hind paw at 3 mg/kg, ip pretreated with compound 20 mins prior to formalin induction measured during second phase (every 5 mins for 15 to 60 mins after formalin injection) by formalin test. Format: functional, organism-based.

For assay [5], the system named is Mus musculus. As to the kind of experiment: Analgesic activity in formalin-induced nociception CD-1 mouse model assessed as reduction in pain behaviour by measuring less shaking of formalin injected hind paw at 3 mg/kg, ip pretreated with compound 20 mins prior to formalin induction measured during second phase (every 5 mins for 15 to 60 mins after formalin injection) by formalin test. Format: functional, organism-based.

Assay [6] has as its system Mus musculus. As to the kind of experiment: In vivo Cannabi-mimetic activity in C57BL6/J mouse assessed as antinociceptive effect by measuring licking of hind paws at 20 mg/kg, ip measured for 85 mins by hot plate test (reference value: 10.15 +/- 0.70 sec). Format: functional.
Assay [7] has as its system Mus musculus. As to the kind of experiment: Analgesic activity in formalin-induced nociception CD-1 mouse model assessed as reduction in pain behaviour by measuring less licking of formalin injected hind paw at 3 mg/kg, ip pretreated with compound 20 mins prior to formalin induction co-treated with AM251 and measured every 5 mins for 1 hr by formalin test. The format is functional, organism-based.

Assay [8] relates to Mus musculus. The experiment in a line: In vivo Cannabi-mimetic activity in C57BL6/J mouse assessed as alteration on the spontaneous activity at 20 mg/kg, ip measured for 15 mins by open field test (reference value: 3283 +/- 390.5 cm). Format: functional.
Assay [9] concerns Mus musculus. The experiment in a line: Analgesic activity in formalin-induced nociception CD-1 mouse model assessed as reduction in pain behaviour by measuring less favoring of formalin injected hind paw at 3 mg/kg, ip pretreated with compound 20 mins prior to formalin induction measured during second phase (every 5 mins for 15 to 60 mins after formalin injection) by formalin test. Format: functional, organism-based.

The test system of assay [10] is Mus musculus. The experiment in a line: Analgesic activity in formalin-induced nociception CD-1 mouse model assessed as reduction in pain behaviour by measuring less lifting of formalin injected hind paw at 3 mg/kg, ip pretreated with compound 20 mins prior to formalin induction co-treated with AM251 and measured every 5 mins for 1 hr by formalin test. The format is functional, organism-based.

For assay [11], the system named is Mus musculus. As to the kind of experiment: Analgesic activity in formalin-induced nociception CD-1 mouse model assessed as reduction in pain behaviour by measuring less shaking of formalin injected hind paw at 3 mg/kg, ip pretreated with compound 20 mins prior to formalin induction measured during first phase (0 to 7 mins after formalin injection) by formalin test. The format is functional, organism-based.

Assay [12] deals with Mus musculus. The experiment in a line: Analgesic activity in formalin-induced nociception CD-1 mouse model assessed as reduction in pain behaviour by measuring less flinching of formalin injected hind paw at 3 mg/kg, ip pretreated with compound 20 mins prior to formalin induction co-treated with AM251 and measured every 5 mins for 1 hr by formalin test. Format: functional, organism-based.

The subject of assay [13] is Mus musculus. As to the kind of experiment: In vivo Cannabi-mimetic activity in C57BL6/J mouse assessed as antinociceptive effect by measuring licking of hind paws at 10 mg/kg, ip measured for 85 mins by hot plate test (reference value: 10.15 +/- 0.70 sec). The format is functional. (Thermal pain tests record how soon the animal reacts.)
Assay [14] deals with Mus musculus. As to the kind of experiment: Analgesic activity in formalin-induced nociception CD-1 mouse model assessed as reduction in pain behaviour by measuring less licking of formalin injected hind paw at 3 mg/kg, ip pretreated with compound 20 mins prior to formalin induction co-treated with AM630 and measured every 5 mins for 1 hr by formalin test. Format: functional, organism-based.

The test system of assay [15] is Mus musculus. The experiment in a line: In vivo Cannabi-mimetic activity in C57BL6/J mouse assessed as catalepsy bar at 10 mg/kg, ip by bar test (reference value: 3.5 +/- 0.65 sec). Format: functional.
Assay [16] concerns Mus musculus. The experiment in a line: Analgesic activity in formalin-induced nociception CD-1 mouse model assessed as reduction in pain behaviour by measuring less favoring of formalin injected hind paw at 3 mg/kg, ip pretreated with compound 20 mins prior to formalin induction co-treated with AM251 and measured every 5 mins for 1 hr by formalin test. Format: functional, organism-based.

The subject of assay [17] is Mus musculus. As to the kind of experiment: Analgesic activity in formalin-induced nociception CD-1 mouse model assessed as reduction in pain behaviour by measuring less favoring of formalin injected hind paw at 3 mg/kg, ip pretreated with compound 20 mins prior to formalin induction co-treated with AM630 and measured every 5 mins for 1 hr by formalin test. The format is functional, organism-based.

Assay [18] concerns Mus musculus. As to the kind of experiment: In vivo Cannabi-mimetic activity in C57BL6/J mouse assessed as catalepsy bar at 20 mg/kg, ip by bar test (reference value: 3.5 +/- 0.65 sec). Format: functional.
The subject of assay [19] is Mus musculus. As to the kind of experiment: Analgesic activity in formalin-induced nociception CD-1 mouse model assessed as reduction in pain behaviour by measuring less favoring of formalin injected hind paw at 3 mg/kg, ip pretreated with compound 20 mins prior to formalin induction measured during first phase (0 to 7 mins after formalin injection) by formalin test. The format is functional, organism-based.

Assay [20] relates to Mus musculus. As to the kind of experiment: Analgesic activity in formalin-induced nociception CD-1 mouse model assessed as reduction in pain behaviour by measuring less lifting of formalin injected hind paw at 3 mg/kg, ip pretreated with compound 20 mins prior to formalin induction measured during first phase (0 to 7 mins after formalin injection) by formalin test. Format: functional, organism-based.

The subject of assay [21] is Mus musculus. As to the kind of experiment: In vivo Cannabi-mimetic activity in C57BL6/J mouse assessed as alteration on the spontaneous activity at 10 mg/kg, ip measured for 15 mins by open field test (reference value: 3283 +/- 390.5 cm). The format is functional.
Assay [22] deals with Mus musculus. As to the kind of experiment: Analgesic activity in formalin-induced nociception CD-1 mouse model assessed as reduction in pain behaviour by measuring less flinching of formalin injected hind paw at 3 mg/kg, ip pretreated with compound 20 mins prior to formalin induction measured during first phase (0 to 7 mins after formalin injection) by formalin test. The format is functional, organism-based.

Assay [23] concerns Mus musculus. As to the kind of experiment: Analgesic activity in formalin-induced nociception CD-1 mouse model assessed as reduction in pain behaviour by measuring less lifting of formalin injected hind paw at 3 mg/kg, ip pretreated with compound 20 mins prior to formalin induction measured during second phase (every 5 mins for 15 to 60 mins after formalin injection) by formalin test. Format: functional, organism-based.

Assay [24] relates to Mus musculus. As to the kind of experiment: In vivo Cannabi-mimetic activity in C57BL6/J mouse assessed as rectal temperature at 10 mg/kg, ip measured after 50 mins (reference value: 0.53 +/- 0.21 degreeC). Format: functional.
Assay [25] concerns Mus musculus. As to the kind of experiment: Analgesic activity in formalin-induced nociception CD-1 mouse model assessed as reduction in pain behaviour by measuring less shaking of formalin injected hind paw at 3 mg/kg, ip pretreated with compound 20 mins prior to formalin induction co-treated with AM630 and measured every 5 mins for 1 hr by formalin test. The format is functional, organism-based.

Assay [26] concerns Mus musculus. As to the kind of experiment: In vivo Cannabi-mimetic activity in C57BL6/J mouse assessed as rectal temperature at 20 mg/kg, ip measured after 50 mins (reference value: 0.53 +/- 0.21 degreeC). Format: functional.
Assay [27] has as its system Mus musculus. The experiment in a line: Analgesic activity in formalin-induced nociception CD-1 mouse model assessed as reduction in pain behaviour by measuring less licking of formalin injected hind paw at 3 mg/kg, ip pretreated with compound 20 mins prior to formalin induction measured during first phase (0 to 7 mins after formalin injection) by formalin test. Format: functional, organism-based.

Assay [28] relates to Mus musculus. As to the kind of experiment: Analgesic activity in formalin-induced nociception CD-1 mouse model assessed as reduction in pain behaviour by measuring less lifting of formalin injected hind paw at 3 mg/kg, ip pretreated with compound 20 mins prior to formalin induction co-treated with AM630 and measured every 5 mins for 1 hr by formalin test. The format is functional, organism-based.

The next assay addresses Cannabinoid receptor 1 (Homo sapiens, UniProt P21554). As to the kind of experiment: Binding affinity to human CB1 receptor.

Sequence of Cannabinoid receptor 1 (P21554 whole entry): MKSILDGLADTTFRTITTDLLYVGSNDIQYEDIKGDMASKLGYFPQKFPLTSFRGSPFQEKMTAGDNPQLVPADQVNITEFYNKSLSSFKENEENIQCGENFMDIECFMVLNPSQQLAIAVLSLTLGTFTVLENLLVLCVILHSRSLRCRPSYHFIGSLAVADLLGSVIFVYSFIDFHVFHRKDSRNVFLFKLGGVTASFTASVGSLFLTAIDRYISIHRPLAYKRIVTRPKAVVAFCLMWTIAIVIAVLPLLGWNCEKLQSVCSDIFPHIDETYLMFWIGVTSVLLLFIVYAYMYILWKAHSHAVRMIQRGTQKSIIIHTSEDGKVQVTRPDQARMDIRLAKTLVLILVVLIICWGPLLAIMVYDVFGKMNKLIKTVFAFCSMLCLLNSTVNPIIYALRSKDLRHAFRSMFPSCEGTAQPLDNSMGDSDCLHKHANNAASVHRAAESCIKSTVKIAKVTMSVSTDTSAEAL

`CCCCc1cc(O)c2c(c1)OC(C)(C)[C@@H]1CCC(C)=C[C@@H]21`: the result in the assay on Mus musculus [1], in the assay on Mus musculus [4], in the assay with Mus musculus [5], in the assay on Mus musculus [9], with Mus musculus [11] and with Mus musculus [19] was Active. For the same molecule, the outcome in the assay with Mus musculus [20], with Mus musculus [22], in the assay with Mus musculus [23] and in the assay with Mus musculus [27] was Active. Besides, the result in the assay with Mus musculus [2], with Mus musculus [3], in the assay on Mus musculus [7], with Mus musculus [10], in the assay on Mus musculus [12] and in the assay with Mus musculus [14] was inactive. Besides, the outcome with Mus musculus [16], with Mus musculus [17], in the assay on Mus musculus [25] and in the assay with Mus musculus [28] was inactive. Besides, the Time in the assay on Mus musculus [6] was determined as 17.5 s; in the assay with Mus musculus [13], 7.94 s; with Mus musculus [15], 3 s; with Mus musculus [18] it was 13 s. The Activity with Mus musculus [8] was 3591 cm; in the assay with Mus musculus [21], 3220 cm; with Mus musculus [24], -0.28 °C; in the assay on Mus musculus [26] it was 0.4 °C.
For orientation: pKi means the negative decadic logarithm of the Ki, by convention in mol/L. In the case of `CCCc1cc(O)c2c(c1)OC(C)(C)[C@@H]1CCC(C)=C[C@@H]21` [TETRAHYDROCANNABIVARIN], the pKi at Cannabinoid receptor 1 is 7.12.
